Columns and labels:
[1] = molecular target: Serine/threonine-protein kinase N1 (Homo sapiens) (UniProt Q16512); details: Compound concentration 1000.0 nM
[2] = molecular target: Maternal embryonic leucine zipper kinase (Homo sapiens) (UniProt Q14680); details: Compound concentration 1000.0 nM
[3] = molecular target: Cyclin-dependent kinase 16 (Homo sapiens) (UniProt Q00536); details: Compound concentration 1000.0 nM
[4] = molecular target: Histamine H2 receptor (Homo sapiens) (UniProt P25021); test: H2 (h) Eurofins-Cerep binding assay; set-up: ligand concentration 0.075 nM; details: filed as antagonist, Compound concentration 10.0 uM
[5] = molecular target: Protein kinase C theta type (Homo sapiens) (UniProt Q04759); details: Compound concentration 1000.0 nM
[6] = molecular target: Beta-1 adrenergic receptor (Homo sapiens) (UniProt P08588); test: Beta1 (h) Eurofins-Cerep binding assay; set-up: ligand concentration 0.3 nM; details: filed as agonist, Compound concentration 10.0 uM
[7] = tested on: Epidermal growth factor receptor (Homo sapiens), P00533 [UNDEFINED MUTATION]; details: Compound concentration 1000.0 nM
[8] = molecular target: Serine/threonine-protein kinase WNK4 (Homo sapiens) (UniProt Q96J92); details: Compound concentration 1000.0 nM
[9] = molecular target: cAMP-dependent protein kinase catalytic subunit PRKX (Homo sapiens) (UniProt P51817); details: Compound concentration 1000.0 nM
[10] = molecular target: Ribosomal protein S6 kinase beta-1 (Homo sapiens) (UniProt P23443); details: Compound concentration 1000.0 nM
[11] = molecular target: Myosin light chain kinase family member 4 (Homo sapiens) (UniProt Q86YV6); details: Compound concentration 1000.0 nM
[12] = molecular target: Activated CDC42 kinase 1 (Homo sapiens) (UniProt Q07912); details: Compound concentration 1000.0 nM
[13] = molecular target: Mitogen-activated protein kinase kinase kinase kinase 5 (Homo sapiens) (UniProt Q9Y4K4); details: Compound concentration 1000.0 nM
[14] = tested on: Epidermal growth factor receptor (Homo sapiens), P00533 [L861Q]; details: Compound concentration 1000.0 nM
[15] = molecular target: Non-receptor tyrosine-protein kinase TNK1 (Homo sapiens) (UniProt Q13470); details: Compound concentration 1000.0 nM
[16] = molecular target: Mitogen-activated protein kinase kinase kinase 4 (Homo sapiens) (UniProt Q9Y6R4); details: Compound concentration 1000.0 nM
[17] = molecular target: Cyclin-G-associated kinase (Homo sapiens) (UniProt O14976); details: Compound concentration 1000.0 nM
[18] = molecular target: STE20-like serine/threonine-protein kinase (Homo sapiens) (UniProt Q9H2G2); details: Compound concentration 1000.0 nM
[19] = molecular target: Serine/threonine-protein kinase LATS2 (Homo sapiens) (UniProt Q9NRM7); details: Compound concentration 1000.0 nM
[20] = molecular target: Serine/threonine-protein kinase MRCK gamma (Homo sapiens) (UniProt Q6DT37); details: Compound concentration 1000.0 nM
[21] = molecular target: Adenosine receptor A3 (Homo sapiens) (UniProt P0DMS8); test: A3 (h) Eurofins-Cerep binding assay; set-up: ligand concentration 0.15 nM; details: filed as agonist, Compound concentration 10.0 uM
[22] = molecular target: Serine/threonine-protein kinase mTOR (Homo sapiens) (UniProt P42345); details: Compound concentration 1000.0 nM
[23] = molecular target: Calcium/calmodulin-dependent protein kinase type II subunit delta (Homo sapiens) (UniProt Q13557); details: Compound concentration 1000.0 nM
[24] = molecular target: Sodium-dependent dopamine transporter (Homo sapiens) (UniProt Q01959); test: dopamine transporter (h) Eurofins-Cerep binding assay; set-up: ligand concentration 4 nM; details: filed as antagonist, Compound concentration 10.0 uM
[25] = molecular target: Serine/threonine-protein kinase PRP4 homolog (Homo sapiens) (UniProt Q13523); details: Compound concentration 1000.0 nM
[26] = molecular target: Phosphatidylinositol 4,5-bisphosphate 3-kinase catalytic subunit alpha isoform (Homo sapiens) (UniProt P42336); details: Compound concentration 1000.0 nM
[27] = molecular target: Cyclin-dependent kinase 17 (Homo sapiens) (UniProt Q00537); details: Compound concentration 1000.0 nM
[28] = molecular target: Wee1-like protein kinase (Homo sapiens) (UniProt P30291); details: Compound concentration 1000.0 nM
[29] = molecular target: Receptor tyrosine-protein kinase erbB-4 (Homo sapiens) (UniProt Q15303); details: Compound concentration 1000.0 nM
[30] = molecular target: Adenosine receptor A1 (Homo sapiens) (UniProt P30542); test: A1 (h) Eurofins-Cerep binding assay; set-up: ligand concentration 1 nM; details: filed as antagonist, Compound concentration 10.0 uM
[31] = tested on: Receptor-type tyrosine-protein kinase FLT3 (Homo sapiens), P36888 [D835H]; details: Compound concentration 1000.0 nM
[32] = molecular target: Serine/threonine-protein kinase 35 (Homo sapiens) (UniProt Q8TDR2); details: Compound concentration 1000.0 nM
[33] = molecular target: Dual specificity mitogen-activated protein kinase kinase 4 (Homo sapiens) (UniProt P45985); details: Compound concentration 1000.0 nM
[34] = tested on: Hepatocyte growth factor receptor (Homo sapiens), P08581 [M1250T]; details: Compound concentration 1000.0 nM
[35] = molecular target: Rho-associated protein kinase 2 (Homo sapiens) (UniProt O75116); details: Compound concentration 1000.0 nM
[36] = molecular target: NUAK family SNF1-like kinase 1 (Homo sapiens) (UniProt O60285); details: Compound concentration 1000.0 nM
[37] = molecular target: G protein-coupled receptor kinase 4 (Homo sapiens) (UniProt P32298); details: Compound concentration 1000.0 nM
[38] = molecular target: Mitogen-activated protein kinase 12 (Homo sapiens) (UniProt P53778); details: Compound concentration 1000.0 nM
[39] = molecular target: Activin receptor type-1B (Homo sapiens) (UniProt P36896); details: Compound concentration 1000.0 nM
[40] = molecular target: RAC-beta serine/threonine-protein kinase (Homo sapiens) (UniProt P31751); details: Compound concentration 1000.0 nM
[41] = molecular target: Serine/threonine-protein kinase DCLK2 (Homo sapiens) (UniProt Q8N568); details: Compound concentration 1000.0 nM
[42] = molecular target: Serine/threonine-protein kinase PLK2 (Homo sapiens) (UniProt Q9NYY3); details: Compound concentration 1000.0 nM
[43] = molecular target: Serine/threonine-protein kinase PAK 3 (Homo sapiens) (UniProt O75914); details: Compound concentration 1000.0 nM
[44] = molecular target: Receptor-type tyrosine-protein kinase FLT3 (Homo sapiens) (UniProt P36888); details: Compound concentration 1000.0 nM
[45] = molecular target: Tyrosine-protein kinase Tec (Homo sapiens) (UniProt P42680); details: Compound concentration 1000.0 nM

Sequence of Cyclin-dependent kinase 17 (Homo sapiens) (Q00537 whole entry, looked up): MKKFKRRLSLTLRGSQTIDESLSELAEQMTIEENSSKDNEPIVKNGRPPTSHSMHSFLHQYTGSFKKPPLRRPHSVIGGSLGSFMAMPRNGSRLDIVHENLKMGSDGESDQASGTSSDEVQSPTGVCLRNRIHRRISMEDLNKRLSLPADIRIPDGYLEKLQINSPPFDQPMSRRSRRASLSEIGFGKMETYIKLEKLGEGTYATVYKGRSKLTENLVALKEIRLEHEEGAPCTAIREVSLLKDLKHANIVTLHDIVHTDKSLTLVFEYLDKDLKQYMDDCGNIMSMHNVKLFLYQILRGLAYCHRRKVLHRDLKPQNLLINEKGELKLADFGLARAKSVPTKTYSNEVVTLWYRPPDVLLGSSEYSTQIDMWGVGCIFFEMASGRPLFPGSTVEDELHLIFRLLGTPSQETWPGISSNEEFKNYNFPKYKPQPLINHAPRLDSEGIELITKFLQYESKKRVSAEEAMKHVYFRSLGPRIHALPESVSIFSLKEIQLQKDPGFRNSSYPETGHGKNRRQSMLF
Sequence of Serine/threonine-protein kinase PLK2 (Homo sapiens) (Q9NYY3 whole entry, looked up): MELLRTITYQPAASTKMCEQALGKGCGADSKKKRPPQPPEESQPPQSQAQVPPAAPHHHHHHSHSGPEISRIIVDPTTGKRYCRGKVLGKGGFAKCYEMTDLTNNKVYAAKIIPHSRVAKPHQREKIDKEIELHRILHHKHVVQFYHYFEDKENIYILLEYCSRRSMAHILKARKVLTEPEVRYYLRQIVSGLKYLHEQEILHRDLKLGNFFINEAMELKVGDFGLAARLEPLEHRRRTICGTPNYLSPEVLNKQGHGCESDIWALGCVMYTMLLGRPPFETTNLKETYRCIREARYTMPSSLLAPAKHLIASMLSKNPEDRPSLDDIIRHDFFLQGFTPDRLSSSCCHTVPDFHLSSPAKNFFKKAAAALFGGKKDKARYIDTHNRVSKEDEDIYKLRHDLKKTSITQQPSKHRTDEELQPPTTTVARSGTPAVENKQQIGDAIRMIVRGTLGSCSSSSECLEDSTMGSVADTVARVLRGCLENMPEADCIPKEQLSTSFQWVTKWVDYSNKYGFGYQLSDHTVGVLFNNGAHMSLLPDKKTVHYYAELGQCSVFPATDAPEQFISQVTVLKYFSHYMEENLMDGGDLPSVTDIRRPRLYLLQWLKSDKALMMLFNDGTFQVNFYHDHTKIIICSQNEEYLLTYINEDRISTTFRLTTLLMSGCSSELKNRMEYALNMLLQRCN
Sequence of Rho-associated protein kinase 2 (Homo sapiens) (O75116 whole entry, looked up): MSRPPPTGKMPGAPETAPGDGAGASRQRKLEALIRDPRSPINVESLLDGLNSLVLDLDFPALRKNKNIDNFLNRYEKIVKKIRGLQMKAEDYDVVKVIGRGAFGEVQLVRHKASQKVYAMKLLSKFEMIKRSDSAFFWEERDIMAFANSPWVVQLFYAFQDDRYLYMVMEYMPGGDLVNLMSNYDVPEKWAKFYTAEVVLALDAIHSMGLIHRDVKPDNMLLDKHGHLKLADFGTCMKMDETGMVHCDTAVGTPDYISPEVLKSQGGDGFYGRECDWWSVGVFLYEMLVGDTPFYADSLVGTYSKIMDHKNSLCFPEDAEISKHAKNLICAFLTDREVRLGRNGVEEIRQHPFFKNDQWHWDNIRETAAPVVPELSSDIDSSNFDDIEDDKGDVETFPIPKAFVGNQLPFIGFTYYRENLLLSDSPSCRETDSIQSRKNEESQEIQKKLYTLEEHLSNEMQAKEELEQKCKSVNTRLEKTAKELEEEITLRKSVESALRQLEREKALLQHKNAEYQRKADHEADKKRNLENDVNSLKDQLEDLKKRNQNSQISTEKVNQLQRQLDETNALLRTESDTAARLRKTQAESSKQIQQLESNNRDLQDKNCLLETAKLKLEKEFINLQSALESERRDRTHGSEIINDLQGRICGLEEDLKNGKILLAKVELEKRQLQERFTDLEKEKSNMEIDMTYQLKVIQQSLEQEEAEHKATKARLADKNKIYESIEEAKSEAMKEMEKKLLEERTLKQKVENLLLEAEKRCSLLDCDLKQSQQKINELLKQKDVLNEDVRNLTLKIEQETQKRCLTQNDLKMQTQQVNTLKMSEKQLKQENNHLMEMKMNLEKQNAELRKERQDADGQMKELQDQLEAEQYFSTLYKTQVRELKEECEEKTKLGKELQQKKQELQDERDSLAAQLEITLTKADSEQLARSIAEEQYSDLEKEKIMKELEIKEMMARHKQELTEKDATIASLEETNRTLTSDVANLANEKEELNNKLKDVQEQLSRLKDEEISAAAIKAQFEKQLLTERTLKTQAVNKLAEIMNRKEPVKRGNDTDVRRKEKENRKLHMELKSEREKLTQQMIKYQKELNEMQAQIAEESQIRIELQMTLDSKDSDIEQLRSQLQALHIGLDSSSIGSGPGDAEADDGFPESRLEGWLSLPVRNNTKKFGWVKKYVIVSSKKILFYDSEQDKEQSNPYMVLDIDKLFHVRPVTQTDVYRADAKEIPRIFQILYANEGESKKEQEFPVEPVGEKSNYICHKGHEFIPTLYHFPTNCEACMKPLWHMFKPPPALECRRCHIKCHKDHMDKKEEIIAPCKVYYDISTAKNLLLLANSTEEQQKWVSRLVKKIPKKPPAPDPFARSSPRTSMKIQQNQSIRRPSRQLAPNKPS
Sequence of Serine/threonine-protein kinase WNK4 (Homo sapiens) (Q96J92 whole entry): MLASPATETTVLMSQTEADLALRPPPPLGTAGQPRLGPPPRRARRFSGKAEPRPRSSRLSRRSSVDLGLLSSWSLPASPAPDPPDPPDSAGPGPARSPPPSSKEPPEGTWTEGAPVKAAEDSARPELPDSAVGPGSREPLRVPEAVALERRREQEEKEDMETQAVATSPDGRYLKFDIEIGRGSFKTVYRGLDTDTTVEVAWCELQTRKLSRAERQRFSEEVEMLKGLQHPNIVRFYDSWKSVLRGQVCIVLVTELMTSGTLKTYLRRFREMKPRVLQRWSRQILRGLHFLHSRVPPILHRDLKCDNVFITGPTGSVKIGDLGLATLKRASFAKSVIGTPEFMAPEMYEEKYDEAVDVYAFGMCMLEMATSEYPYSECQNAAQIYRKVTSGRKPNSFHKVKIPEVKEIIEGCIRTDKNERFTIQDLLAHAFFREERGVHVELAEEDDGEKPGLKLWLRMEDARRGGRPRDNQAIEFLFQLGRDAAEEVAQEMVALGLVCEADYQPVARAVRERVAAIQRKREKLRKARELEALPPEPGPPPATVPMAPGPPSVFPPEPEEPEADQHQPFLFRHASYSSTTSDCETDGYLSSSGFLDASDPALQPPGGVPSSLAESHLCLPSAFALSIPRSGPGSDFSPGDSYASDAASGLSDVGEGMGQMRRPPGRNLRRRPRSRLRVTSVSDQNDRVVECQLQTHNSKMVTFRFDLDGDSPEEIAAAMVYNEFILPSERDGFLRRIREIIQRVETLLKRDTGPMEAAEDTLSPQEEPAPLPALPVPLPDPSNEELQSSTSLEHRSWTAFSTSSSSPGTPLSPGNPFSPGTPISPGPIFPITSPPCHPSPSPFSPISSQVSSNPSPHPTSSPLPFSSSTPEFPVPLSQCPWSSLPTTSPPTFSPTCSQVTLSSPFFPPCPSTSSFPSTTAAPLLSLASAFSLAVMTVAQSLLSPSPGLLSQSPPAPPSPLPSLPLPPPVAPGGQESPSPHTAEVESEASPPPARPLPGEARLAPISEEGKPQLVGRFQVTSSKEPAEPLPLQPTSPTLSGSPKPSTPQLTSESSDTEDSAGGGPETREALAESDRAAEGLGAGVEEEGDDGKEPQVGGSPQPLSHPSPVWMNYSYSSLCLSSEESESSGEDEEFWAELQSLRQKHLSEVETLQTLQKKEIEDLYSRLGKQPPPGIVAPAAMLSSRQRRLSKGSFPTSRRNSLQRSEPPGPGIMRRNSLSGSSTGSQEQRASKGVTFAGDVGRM
Sequence of Dual specificity mitogen-activated protein kinase kinase 4 (Homo sapiens) (P45985 whole entry): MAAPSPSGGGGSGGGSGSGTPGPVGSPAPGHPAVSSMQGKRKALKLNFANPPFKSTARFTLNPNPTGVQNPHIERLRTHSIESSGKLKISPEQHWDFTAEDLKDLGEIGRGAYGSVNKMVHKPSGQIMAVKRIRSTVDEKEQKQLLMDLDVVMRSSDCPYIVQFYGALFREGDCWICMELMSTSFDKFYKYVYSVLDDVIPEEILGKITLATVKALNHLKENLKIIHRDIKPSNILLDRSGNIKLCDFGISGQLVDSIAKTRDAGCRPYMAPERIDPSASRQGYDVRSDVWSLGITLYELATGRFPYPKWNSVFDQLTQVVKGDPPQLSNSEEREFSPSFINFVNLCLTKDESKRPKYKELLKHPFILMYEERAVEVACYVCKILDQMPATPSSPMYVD
Sequence of Mitogen-activated protein kinase 12 (Homo sapiens) (P53778 whole entry): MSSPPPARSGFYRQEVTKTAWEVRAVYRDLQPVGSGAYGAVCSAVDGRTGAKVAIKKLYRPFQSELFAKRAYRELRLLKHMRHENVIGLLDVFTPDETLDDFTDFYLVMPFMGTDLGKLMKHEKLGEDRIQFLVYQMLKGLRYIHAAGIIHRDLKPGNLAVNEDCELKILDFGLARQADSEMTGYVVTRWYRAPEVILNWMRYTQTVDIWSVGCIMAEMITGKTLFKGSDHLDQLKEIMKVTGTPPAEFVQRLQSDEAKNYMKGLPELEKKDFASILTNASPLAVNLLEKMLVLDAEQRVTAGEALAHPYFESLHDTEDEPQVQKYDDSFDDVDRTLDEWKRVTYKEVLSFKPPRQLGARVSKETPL
Sequence of Histamine H2 receptor (Homo sapiens) (P25021 whole entry): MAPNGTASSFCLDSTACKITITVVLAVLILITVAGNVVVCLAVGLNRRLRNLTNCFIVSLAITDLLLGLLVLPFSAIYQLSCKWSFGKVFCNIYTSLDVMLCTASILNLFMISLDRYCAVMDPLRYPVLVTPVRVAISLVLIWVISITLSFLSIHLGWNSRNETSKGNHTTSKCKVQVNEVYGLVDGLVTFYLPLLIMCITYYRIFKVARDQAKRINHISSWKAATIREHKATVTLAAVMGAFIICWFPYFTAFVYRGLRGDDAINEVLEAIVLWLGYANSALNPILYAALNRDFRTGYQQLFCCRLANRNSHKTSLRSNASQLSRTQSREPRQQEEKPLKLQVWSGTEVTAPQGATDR

CCCOc1ccc([C@@H]2[C@@H](C(=O)O)[C@H](c3ccc4c(c3)OCO4)CN2CC(=O)Nc2c(CC)cccc2CC)cc1 [A-1806262]
8.2%: % Inhibition of Control Specific Binding (Mean n=2) [6]
37.6%: % Inhibition of Control Specific Binding (Mean n=2) [21]
18.3%: % Inhibition of Control Specific Binding (Mean n=2) [24]
inactive: residual activity [1] 100% | residual activity [2] 84% | residual activity [3] 89% | residual activity [5] 100% | residual activity [7] 58% | residual activity [8] 80% | residual activity [9] 89% | residual activity [10] 79% | residual activity [11] 100% | residual activity [12] 90% | residual activity [13] 95% | residual activity [14] 100% | residual activity [15] 93% | residual activity [16] 99% | residual activity [17] 98% | residual activity [18] 100% | residual activity [19] 100% | residual activity [20] 57% | residual activity [22] 100% | residual activity [23] 88% | residual activity [25] 100% | residual activity [26] 84% | residual activity [27] 90% | residual activity [28] 95% | residual activity [29] 100% | residual activity [31] 100% | residual activity [32] 98% | residual activity [33] 83% | residual activity [34] 81% | residual activity [35] 84% | residual activity [36] 99% | residual activity [37] 100% | residual activity [38] 100% | residual activity [39] 90% | residual activity [40] 100% | residual activity [41] 85% | residual activity [42] 86% | residual activity [43] 77% | residual activity [44] 71% | residual activity [45] 96%
4.2%: % Inhibition of Control Specific Binding (Mean n=2) [30]
-18.1%: % Inhibition of Control Specific Binding (Mean n=2) [4]

CCCOc1ccc([C@H]2[C@H](C(=O)O)[C@@H](c3ccc4c(c3)OCO4)CN2CC(=O)Nc2c(CC)cccc2CC)cc1 [A-192621]
1.4%: % Inhibition of Control Specific Binding (Mean n=2) [6]
23.6%: % Inhibition of Control Specific Binding (Mean n=2) [24]
-35.3%: % Inhibition of Control Specific Binding (Mean n=2) [4]
47.4%: % Inhibition of Control Specific Binding (Mean n=2) [21]
8.3%: % Inhibition of Control Specific Binding (Mean n=2) [30]
inactive: residual activity [1] 87% | residual activity [2] 65% | residual activity [3] 77% | residual activity [5] 81% | residual activity [7] 81% | residual activity [8] 81% | residual activity [9] 91% | residual activity [10] 76% | residual activity [11] 75% | residual activity [12] 100% | residual activity [13] 93% | residual activity [14] 100% | residual activity [15] 100% | residual activity [16] 88% | residual activity [17] 93% | residual activity [18] 100% | residual activity [19] 97% | residual activity [20] 79% | residual activity [22] 77% | residual activity [23] 93% | residual activity [25] 82% | residual activity [26] 80% | residual activity [27] 91% | residual activity [28] 93% | residual activity [29] 100% | residual activity [31] 92% | residual activity [32] 92% | residual activity [33] 80% | residual activity [34] 71% | residual activity [35] 69% | residual activity [36] 83% | residual activity [37] 100% | residual activity [38] 73% | residual activity [39] 99% | residual activity [40] 100% | residual activity [41] 77% | residual activity [42] 79% | residual activity [43] 100% | residual activity [44] 80% | residual activity [45] 100%
